Test [1] deals with T1, Beta-lactamase (Enterobacter cloacae, UniProt P05364).
Description: Inhibitory activity against beta-Lactamase enzyme derived from Enterobacter cloacae P99
Another test has as its target Beta-lactamase TEM (Escherichia coli, UniProt P62593). As to the kind of experiment: Inhibitory activity against beta-Lactamase enzyme derived from Escherichia coli WC3310 TEM-2.
Test [2] addresses T1, Beta-lactamase. The source holds these as a separate data set.
Description: Inhibitory activity against beta-Lactamase enzyme derived from Enterobacter cloacae SC 12368 E-2
The subject of test [3] is Escherichia coli. As to the kind of experiment: […] antibacterial activity (synergistic study) against Escherichia coli TEM-1. Format: functional.
The subject of test [4] is Enterobacter cloacae. Description: […] antibacterial activity (synergistic study) against Enterobacter cloacae P99. Type of test: functional.
For test [5], the system named is Escherichia coli. Description: […] antibacterial activity (synergistic study) against Escherichia coli OXA-1. Format: functional.
Test [6] deals with Enterobacter cloacae. Description: […] antibacterial activity (synergistic study) against Enterobacter cloacae 12368. Type of test: functional.
The next test relates to Staphylococcus aureus. As to the kind of experiment: […] antibacterial activity (synergistic study) against Staphylococcus aureus ATCC 29213. Format: functional.
Test [7] has as its system Escherichia coli. Description: […] antibacterial activity (synergistic study) against Escherichia coli TEM-2. Type of test: functional.

As a reminder, the IC50 is the concentration at which inhibition is half-maximal. A word on the MIC: it is the lowest concentration that inhibits growth of the organism.

T1 sequence (P05364 whole entry): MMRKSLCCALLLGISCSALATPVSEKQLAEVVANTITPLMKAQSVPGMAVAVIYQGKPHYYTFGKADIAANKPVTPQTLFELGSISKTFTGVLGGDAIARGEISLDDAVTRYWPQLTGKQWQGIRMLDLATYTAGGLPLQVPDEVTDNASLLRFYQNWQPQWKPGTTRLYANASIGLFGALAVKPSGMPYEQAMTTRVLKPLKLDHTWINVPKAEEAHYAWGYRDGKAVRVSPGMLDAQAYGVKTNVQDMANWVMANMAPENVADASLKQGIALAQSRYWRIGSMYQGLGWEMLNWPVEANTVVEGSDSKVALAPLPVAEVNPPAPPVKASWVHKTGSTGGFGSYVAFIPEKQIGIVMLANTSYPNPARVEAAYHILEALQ
Sequence of Beta-lactamase TEM (P62593 whole entry): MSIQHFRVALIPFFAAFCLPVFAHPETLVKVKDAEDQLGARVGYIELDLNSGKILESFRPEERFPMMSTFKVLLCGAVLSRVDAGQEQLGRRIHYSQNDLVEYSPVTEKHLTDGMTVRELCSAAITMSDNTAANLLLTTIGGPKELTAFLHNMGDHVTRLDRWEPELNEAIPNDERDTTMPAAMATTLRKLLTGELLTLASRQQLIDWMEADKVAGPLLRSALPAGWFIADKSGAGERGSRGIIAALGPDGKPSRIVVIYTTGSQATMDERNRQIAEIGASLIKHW

Turning to `CC1(C)S[C@@H]2/C(=C\C(=O)O)C(=O)N2[C@H]1C(=O)O`, the IC50 at Beta-lactamase [1] was 13900 nM; against Beta-lactamase TEM it was over 20000 nM; against Beta-lactamase [2], over 20000 nM.
On to `CCN1CCN(C(=O)N[C@@H](C(=O)NC2C(=O)N3C2SC(C)(C)C3C(=O)O)c2ccccc2)C(=O)C1=O` (single isomer, unassigned; form 2) [PIPERACILLIN], for which the MIC is over 128 µg/mL with Escherichia coli [3]; over 128 µg/mL with Enterobacter cloacae [4]; 64 µg/mL in the test with Escherichia coli [5]; 16 µg/mL with Enterobacter cloacae [6]; 4 µg/mL with Staphylococcus aureus; over 128 µg/mL in the test on Escherichia coli [7].
On to `COC(=O)/C=C1/C(=O)N2[C@@H]1SC(C)(C)[C@@H]2C(=O)O`, for which the IC50 against Beta-lactamase [1], against Beta-lactamase TEM and on Beta-lactamase [2] was over 20000 nM throughout.
Regarding `CC(C)(C)OC(=O)/C=C1/C(=O)N2[C@@H](C(=O)[O-])C(C)(C)S(=O)(=O)[C@H]12.CCN1CCN(C(=O)NC(C(=O)N[C@H]2C(=O)N3[C@H]2SC(C)(C)[C@H]3C(=O)O)c2ccccc2)C(=O)C1=O.[Na+]` (some centres undefined), the MIC in the test on Escherichia coli [3] was 128 µg/mL; in the test with Enterobacter cloacae [4] it was 128 µg/mL; with Escherichia coli [5], 32 µg/mL; with Enterobacter cloacae [6], 32 µg/mL; in the test with Staphylococcus aureus, 2 µg/mL; in the test on Escherichia coli [7] it was over 128 µg/mL.
`CC(=O)OCC1=C(C(=O)[O-])N2C(=O)/C(=C/C(=O)[O-])[C@H]2S(=O)(=O)C1.CCN1CCN(C(=O)NC(C(=O)N[C@H]2C(=O)N3[C@H]2SC(C)(C)[C@H]3C(=O)O)c2ccccc2)C(=O)C1=O.[Na+].[Na+]` (some centres undefined): the MIC in the test on Escherichia coli [3] stood at 64 µg/mL; with Enterobacter cloacae [4], 128 µg/mL; in the test on Escherichia coli [5], 64 µg/mL; in the test with Enterobacter cloacae [6] it was 32 µg/mL; with Staphylococcus aureus it was 4 µg/mL; in the test on Escherichia coli [7], 128 µg/mL.
As for `COC(=O)/C=C1/C(=O)N2C(C(=O)O)=C(COC(C)=O)CS[C@H]12`, the IC50 against Beta-lactamase [1], against Beta-lactamase TEM and against Beta-lactamase [2] was over 20000 nM each time.
For `CCN1CCN(C(=O)NC(C(=O)N[C@H]2C(=O)N3[C@H]2SC(C)(C)[C@H]3C(=O)O)c2ccccc2)C(=O)C1=O.COC(=O)/C=C1/C(=O)N2[C@@H](C(=O)[O-])C(C)(C)S(=O)(=O)[C@H]12.[Na+]` (some centres undefined), the MIC is 64 µg/mL in the test on Escherichia coli [3]; 128 µg/mL in the test on Enterobacter cloacae [4]; 16 µg/mL with Escherichia coli [5]; 16 µg/mL in the test with Enterobacter cloacae [6]; 1 µg/mL with Staphylococcus aureus; 128 µg/mL in the test with Escherichia coli [7].
For the molecule `CCN1CCN(C(=O)N[C@@H](C(=O)NC2C(=O)N3C2SC(C)(C)C3C(=O)O)c2ccccc2)C(=O)C1=O.C[C@]1(Cn2ccnn2)[C@H](C(=O)O)N2C(=O)C[C@H]2S1(=O)=O` (single isomer, unassigned; form 1), the MIC with Escherichia coli [3] stood at 2 µg/mL; with Enterobacter cloacae [4], 16 µg/mL; in the test with Escherichia coli [5], 16 µg/mL; with Enterobacter cloacae [6], 16 µg/mL; in the test with Staphylococcus aureus, 1 µg/mL; in the test on Escherichia coli [7] it was 8 µg/mL.
`CC1(C)[C@H](C(=O)[O-])N2C(=O)/C(=C/C(=O)[O-])[C@H]2S1(=O)=O.CCN1CCN(C(=O)NC(C(=O)N[C@H]2C(=O)N3[C@H]2SC(C)(C)[C@H]3C(=O)O)c2ccccc2)C(=O)C1=O.[Na+].[Na+]` (some centres undefined): the MIC in the test with Escherichia coli [3] amounted to 32 µg/mL; in the test on Enterobacter cloacae [4], 128 µg/mL; in the test on Escherichia coli [5] it was 16 µg/mL; in the test on Enterobacter cloacae [6] it was 16 µg/mL; with Staphylococcus aureus, 4 µg/mL; with Escherichia coli [7] it was 64 µg/mL.
Consider `CC(=O)OCC1=C(C(=O)[O-])N2C(=O)/C(=C/C(=O)OC(C)(C)C)[C@H]2S(=O)(=O)C1.CCN1CCN(C(=O)NC(C(=O)N[C@H]2C(=O)N3[C@H]2SC(C)(C)[C@H]3C(=O)O)c2ccccc2)C(=O)C1=O.[Na+]` (some centres undefined), for which the MIC in the test on Escherichia coli [3] came to 64 µg/mL; in the test on Enterobacter cloacae [4] it was 128 µg/mL; with Escherichia coli [5], 64 µg/mL; in the test on Enterobacter cloacae [6], 16 µg/mL; in the test with Staphylococcus aureus, 4 µg/mL; in the test with Escherichia coli [7] it was 128 µg/mL.
`CC(=O)OCC1=C(C(=O)[O-])N2C(=O)/C(=C/C(=O)[O-])[C@H]2S(=O)(=O)C1.[Na+].[Na+]`: the MIC in the test on Escherichia coli [3] was over 128 µg/mL; in the test on Enterobacter cloacae [4], over 128 µg/mL; with Escherichia coli [5], over 128 µg/mL; in the test with Enterobacter cloacae [6], over 128 µg/mL; with Staphylococcus aureus it was 16 µg/mL; in the test on Escherichia coli [7] it was over 128 µg/mL. For the same molecule, the results for the IC50 against Beta-lactamase [1], against Beta-lactamase TEM and against Beta-lactamase [2] were over 20000 nM, 400 nM and over 20000 nM, respectively.
In the case of `COC(=O)/C=C1/C(=O)N2C(C(=O)[O-])=C(COC(C)=O)CS(=O)(=O)[C@H]12.[Na+]`, the MIC in the test with Escherichia coli [3], with Enterobacter cloacae [4], in the test with Escherichia coli [5], with Enterobacter cloacae [6], in the test with Staphylococcus aureus and with Escherichia coli [7] was over 128 µg/mL in each case. For the same molecule, the IC50 against Beta-lactamase [1] was over 20000 nM; against Beta-lactamase TEM, 37 nM; against Beta-lactamase [2] it was over 20000 nM.
`CC(=O)OCC1=C(C(=O)O)N2C(=O)/C(=C/C(=O)O)[C@H]2SC1`: the IC50 against Beta-lactamase [1], on Beta-lactamase TEM and at Beta-lactamase [2] was over 20000 nM throughout.
For `COC(=O)/C=C1/C(=O)N2[C@@H](C(=O)[O-])C(C)(C)S(=O)(=O)[C@H]12.[Na+]`, the MIC with Escherichia coli [3], in the test with Enterobacter cloacae [4], in the test with Escherichia coli [5], in the test on Enterobacter cloacae [6], with Staphylococcus aureus and in the test on Escherichia coli [7] was over 128 µg/mL in each case. For the same molecule, the IC50 on Beta-lactamase [1] was found to be 154 nM; against Beta-lactamase TEM, 308 nM; on Beta-lactamase [2], 615 nM.
Turning to `CC(=O)OCC1=C(C(=O)[O-])N2C(=O)/C(=C/C(=O)OC(C)(C)C)[C@H]2S(=O)(=O)C1.[Na+]`, the MIC in the test on Escherichia coli [3] was over 128 µg/mL; with Enterobacter cloacae [4] it was over 128 µg/mL; with Escherichia coli [5] it was over 128 µg/mL; in the test with Enterobacter cloacae [6], over 128 µg/mL; in the test with Staphylococcus aureus, 4 µg/mL; in the test on Escherichia coli [7] it was over 128 µg/mL.
On to `C=C1C(=O)N2C(C(=O)O)=C(COC(C)=O)CS(=O)(=O)[C@H]12`, for which the IC50 on Beta-lactamase [1] is 25 nM; at Beta-lactamase TEM it was 800 nM; against Beta-lactamase [2], 25 nM.
As to `CC1(C)[C@H](C(=O)[O-])N2C(=O)/C(=C/C(=O)[O-])[C@H]2S1(=O)=O.[Na+].[Na+]`, the MIC in the test with Escherichia coli [3], with Enterobacter cloacae [4], in the test with Escherichia coli [5], in the test on Enterobacter cloacae [6], in the test with Staphylococcus aureus and in the test with Escherichia coli [7] was over 128 µg/mL each time. Also, the IC50 worked out at 45 nM against Beta-lactamase [1], 120 nM against Beta-lactamase TEM and 91 nM at Beta-lactamase [2].
Consider `CCN1CCN(C(=O)NC(C(=O)N[C@H]2C(=O)N3[C@H]2SC(C)(C)[C@H]3C(=O)O)c2ccccc2)C(=O)C1=O.COC(=O)/C=C1/C(=O)N2C(C(=O)[O-])=C(COC(C)=O)CS(=O)(=O)[C@H]12.[Na+]` (some centres undefined), for which the MIC with Escherichia coli [3] came to 32 µg/mL; in the test on Enterobacter cloacae [4], 128 µg/mL; with Escherichia coli [5] it was 64 µg/mL; in the test with Enterobacter cloacae [6], 16 µg/mL; in the test with Staphylococcus aureus, 4 µg/mL; with Escherichia coli [7], 64 µg/mL.
As for `CC(C)(C)OC(=O)/C=C1/C(=O)N2[C@@H](C(=O)[O-])C(C)(C)S(=O)(=O)[C@H]12.[Na+]`, the MIC in the test on Escherichia coli [3], in the test on Enterobacter cloacae [4], in the test with Escherichia coli [5], in the test with Enterobacter cloacae [6], in the test with Staphylococcus aureus and in the test on Escherichia coli [7] was over 128 µg/mL in each case. Moreover, the values for the IC50 against Beta-lactamase [1], against Beta-lactamase TEM and on Beta-lactamase [2] were 4090 nM, 136 nM and 13600 nM, respectively.
As for `C[C@]1(Cn2ccnn2)[C@H](C(=O)O)N2C(=O)C[C@H]2S1(=O)=O` (single isomer, unassigned) [TAZOBACTAM], the MIC was over 128 µg/mL in the test with Escherichia coli [3]; over 128 µg/mL with Enterobacter cloacae [4]; over 128 µg/mL in the test on Escherichia coli [5]; over 128 µg/mL in the test on Enterobacter cloacae [6]; 64 µg/mL in the test on Staphylococcus aureus; over 128 µg/mL in the test with Escherichia coli [7].
As to `C=C=C1C(=O)N2C(C(=O)O)=C(COC(C)=O)CS(=O)(=O)[C@H]12`, the results for the IC50 on Beta-lactamase [1], against Beta-lactamase TEM and against Beta-lactamase [2] were 130 nM, over 20000 nM and 260 nM, respectively.
As to `CC(=O)/C=C1/C(=O)N2[C@@H]1SC(C)(C)[C@@H]2C(=O)O`, the IC50 at Beta-lactamase [1] was found to be 361 nM; at Beta-lactamase TEM, 3 nM; at Beta-lactamase [2] it was 5410 nM.
On to `CC(C)(C)OC(=O)/C=C1/C(=O)N2[C@@H]1SC(C)(C)[C@@H]2C(=O)O`, for which the IC50 on Beta-lactamase [1] was 8950 nM; at Beta-lactamase TEM it was over 20000 nM; on Beta-lactamase [2], over 20000 nM.
